Tested on: HEK293 cells
Test: Preliminary screening as mRNA vectors, EGFP mRNA transfection of HEK293 cells
Assay type: cell-based
Conditions: EGFP mRNA 50 ng per well, 96-well plates; percentage of GFP fluorescent cells relative to total number of cells (Hoechst)
Protocol: Cell line: HEK293 cells (ATCC CRL-1573™)
Medium: DMEM supplemented with 10% fetal bovine serum (Invitrogen)
Screening: cell transfection on 96-well plates
Detection (readout): percentage of the number of GFP fluorescent cells relative to the total number of cells (the total number of cells was determined using nucleus dye Hoechst). Lipofectamine2000 (Invitrogen) was used as the positive control.
Method: the experimental method was basically the same with Example 4, and the mass of EGFP mRNA (TriLink) for transfection was 50 ng per well.

Compound	Absolute mRNA transfection efficiency in HEK293 cells
CCCCCCCCCCCCNc1nc(NCCN2CCOCC2)nc(SCCCCCCCC)n1 [Compound D2S8N12]	7.0%
CCCCCCCCCCCCCNc1nc(NCCN2CCOCC2)nc(SCCCCCCCC)n1 [Compound D2S8N13]	7.5%
CCCCCCCCCCCCCCCNc1nc(NCCN2CCOCC2)nc(SCCCCCCCC)n1 [Compound D2S8N15]	5.5%
CCCCCCCCCCCCCCCCNc1nc(NCCN2CCOCC2)nc(SCCCCCCCC)n1 [Compound D2S8N16]	3.4%
CCCCCCCCCCCCCCCCCCNc1nc(NCCN2CCOCC2)nc(SCCCCCCCC)n1 [Compound D2S8N18]	3.7%
CCCCCCCCSc1nc(NCCN2CCOCC2)nc(SCCCCCCCC)n1 [Compound D2S8S8]	54.5%
CCCCCCCCCSc1nc(NCCN2CCOCC2)nc(SCCCCCCCC)n1 [Compound D2S8S9]	84.9%
CCCCCCCCCCSc1nc(NCCN2CCOCC2)nc(SCCCCCCCC)n1 [Compound D2S8S10]	38.8%
CCCCCCCCCCCSc1nc(NCCN2CCOCC2)nc(SCCCCCCCC)n1 [Compound D2S8S11]	43.3%
CCCCCCCCCCCCSc1nc(NCCN2CCOCC2)nc(SCCCCCCCC)n1 [Compound D2S8S12]	1.1%
CCCCCCCCCSc1nc(NCCCCCC)nc(NCCN2CCOCC2)n1 [Compound D2S9N6]	0.5%
CCCCCCCCCSc1nc(NCCCCCCC)nc(NCCN2CCOCC2)n1 [Compound D2S9N7]	4.2%
CCCCCCCCCSc1nc(NCCCCCCCC)nc(NCCN2CCOCC2)n1 [Compound D2S9N8]	22.6%
CCCCCCCCCNc1nc(NCCN2CCOCC2)nc(SCCCCCCCCC)n1 [Compound D2S9N9]	38.5%
CCCCCCCCCCCNc1nc(NCCN2CCOCC2)nc(SCCCCCCCCC)n1 [Compound D2S9N11]	44.8%
CCCCCCCCCCCCNc1nc(NCCN2CCOCC2)nc(SCCCCCCCCC)n1 [Compound D2S9N12]	15.2%
CCCCCCCCCCCCCNc1nc(NCCN2CCOCC2)nc(SCCCCCCCCC)n1 [Compound D2S9N13]	12.3%
CCCCCCCCCCCCCCCNc1nc(NCCN2CCOCC2)nc(SCCCCCCCCC)n1 [Compound D2S9N15]	5.9%
CCCCCCCCCCCCCCCCNc1nc(NCCN2CCOCC2)nc(SCCCCCCCCC)n1 [Compound D2S9N16]	1.4%
CCCCCCCCCCCCCCCCCCNc1nc(NCCN2CCOCC2)nc(SCCCCCCCCC)n1 [Compound D2S9N18]	2.4%
CCCCCCCCCCSc1nc(NCCCCCC)nc(NCCN2CCOCC2)n1 [Compound D2S10N6]	0.1%

Compound	Absolute mRNA transfection efficiency in HEK293 cells
CCCCCCCCCCSc1nc(NCCCCCCC)nc(NCCN2CCOCC2)n1 [Compound D2S10N7]	0.5%
CCCCCCCCCCSc1nc(NCCCCCCCC)nc(NCCN2CCOCC2)n1 [Compound D2S10N8]	0.5%
CCCCCCCCCCSc1nc(NCCCCCCCCC)nc(NCCN2CCOCC2)n1 [Compound D2S10N9]	0.5%
CCCCCCCCCCCNc1nc(NCCN2CCOCC2)nc(SCCCCCCCCCC)n1 [Compound D2S10N11]	0.2%
CCCCCCCCCCCCNc1nc(NCCN2CCOCC2)nc(SCCCCCCCCCC)n1 [Compound D2S10N12]	1.5%
CCCCCCCCCCCCCNc1nc(NCCN2CCOCC2)nc(SCCCCCCCCCC)n1 [Compound D2S10N13]	0.2%
CCCCCCCCCCCCCCCNc1nc(NCCN2CCOCC2)nc(SCCCCCCCCCC)n1 [Compound D2S10N15]	1.3%
CCCCCCCCCCCCCCCCNc1nc(NCCN2CCOCC2)nc(SCCCCCCCCCC)n1 [Compound D2S10N16]	0.6%
CCCCCCCCCCCCCCCCCCNc1nc(NCCN2CCOCC2)nc(SCCCCCCCCCC)n1 [Compound D2S10N18]	0.0%
CCCCCCCCCCCSc1nc(NCCCCCC)nc(NCCN2CCOCC2)n1 [Compound D2S11N6]	5.4%
CCCCCCCCCCCSc1nc(NCCCCCCC)nc(NCCN2CCOCC2)n1 [Compound D2S11N7]	8.5%
CCCCCCCCCCCSc1nc(NCCCCCCCC)nc(NCCN2CCOCC2)n1 [Compound D2S11N8]	2.4%
CCCCCCCCCCCSc1nc(NCCCCCCCCC)nc(NCCN2CCOCC2)n1 [Compound D2S11N9]	2.5%
CCCCCCCCCCCNc1nc(NCCN2CCOCC2)nc(SCCCCCCCCCCC)n1 [Compound D2S11N11]	0.6%
CCCCCCCCCCCCNc1nc(NCCN2CCOCC2)nc(SCCCCCCCCCCC)n1 [Compound D2S11N12]	3.1%
CCCCCCCCCCCCCNc1nc(NCCN2CCOCC2)nc(SCCCCCCCCCCC)n1 [Compound D2S11N13]	1.9%
CCCCCCCCCCCCCCCNc1nc(NCCN2CCOCC2)nc(SCCCCCCCCCCC)n1 [Compound D2S11N15]	2.8%
CCCCCCCCCCCCCCCCNc1nc(NCCN2CCOCC2)nc(SCCCCCCCCCCC)n1 [Compound D2S11N16]	1.1%
CCCCCCCCCCCCCCCCCCNc1nc(NCCN2CCOCC2)nc(SCCCCCCCCCCC)n1 [Compound D2S11N18]	0.0%
CCCCCCCCCCCCSc1nc(NCCCCCC)nc(NCCN2CCOCC2)n1 [Compound D2S12N6]	0.0%
CCCCCCCCCCCCSc1nc(NCCCCCCC)nc(NCCN2CCOCC2)n1 [Compound D2S12N7]	0.4%

Compound	Absolute mRNA transfection efficiency in HEK293 cells
CCCCCCCCCCCCSc1nc(NCCCCCCCC)nc(NCCN2CCOCC2)n1 [Compound D2S12N8]	1.6%
CCCCCCCCCCCCSc1nc(NCCCCCCCCC)nc(NCCN2CCOCC2)n1 [Compound D2S12N9]	1.1%
CCCCCCCCCCCCSc1nc(NCCCCCCCCCCC)nc(NCCN2CCOCC2)n1 [Compound D2S12N11]	0.3%
CCCCCCCCCCCCNc1nc(NCCN2CCOCC2)nc(SCCCCCCCCCCCC)n1 [Compound D2S12N12]	0.0%
CCCCCCCCCCCCCNc1nc(NCCN2CCOCC2)nc(SCCCCCCCCCCCC)n1 [Compound D2S12N13]	0.0%
CCCCCCCCCCCCCCCNc1nc(NCCN2CCOCC2)nc(SCCCCCCCCCCCC)n1 [Compound D2S12N15]	0.0%
CCCCCCCCCCCCCCCCNc1nc(NCCN2CCOCC2)nc(SCCCCCCCCCCCC)n1 [Compound D2S12N16]	0.8%
CCCCCCCCCCCCCCCCCCNc1nc(NCCN2CCOCC2)nc(SCCCCCCCCCCCC)n1 [Compound D2S12N18]	0.8%
CCCCCCCCCCCCCCSc1nc(NCCCCCC)nc(NCCN2CCOCC2)n1 [Compound D2S14N6]	8.8%
CCCCCCCCCCCCCCSc1nc(NCCCCCCC)nc(NCCN2CCOCC2)n1 [Compound D2S14N7]	4.5%
CCCCCCCCCCCCCCSc1nc(NCCCCCCCC)nc(NCCN2CCOCC2)n1 [Compound D2S14N8]	3.7%
CCCCCCCCCCCCCCSc1nc(NCCCCCCCCC)nc(NCCN2CCOCC2)n1 [Compound D2S14N9]	7.4%
CCCCCCCCCCCCCCSc1nc(NCCCCCCCCCCC)nc(NCCN2CCOCC2)n1 [Compound D2S14N11]	3.5%
CCCCCCCCCCCCCCSc1nc(NCCCCCCCCCCCC)nc(NCCN2CCOCC2)n1 [Compound D2S14N12]	2.1%
CCCCCCCCCCCCCCSc1nc(NCCCCCCCCCCCCC)nc(NCCN2CCOCC2)n1 [Compound D2S14N13]	1.1%
CCCCCCCCCCCCCCCNc1nc(NCCN2CCOCC2)nc(SCCCCCCCCCCCCCC)n1 [Compound D2S14N15]	0.0%
CCCCCCCCCCCCCCCCNc1nc(NCCN2CCOCC2)nc(SCCCCCCCCCCCCCC)n1 [Compound D2S14N16]	0.1%
CCCCCCCCCCCCCCCCCCNc1nc(NCCN2CCOCC2)nc(SCCCCCCCCCCCCCC)n1 [Compound D2S14N18]	0.1%
CCCCCCCCCCCCCCCSc1nc(NCCCCCC)nc(NCCN2CCOCC2)n1 [Compound D2S15N6]	4.9%

Reference: patent US20230123334A1, “AMINO LIPID COMPOUND, PREPARATION METHOD THEREFOR, AND APPLICATION THEREOF” (SHENZHEN SHENXIN BIOTECHNOLOGY CO., LTD., priority 2020, published 2023)
